In ChEMBL document CHEMBL3862043, “Fluorescent Inhibitors as Tools To Characterize Enzymes: Case Study of the Lipid Kinase Phosphatidylinositol 4-Kinase IIIβ (PI4KB)” (J Med Chem, 2017):

Test: Drug uptake in vesicles of HeLa cells transfected with iRFP-tagged PI4KB (unknown origin) incubated for 30 mins by fluorescence spectroscopy
Type: ADME, cell-based
Details: human, 0.5 h; call rule not given here

Q: With `CCc1cc(CNc2cc(Cl)nn3c(-c4ccc(OC)c(S(=O)(=O)NCc5cn(-c6cc7ccc(O)cc7oc6=O)nn5)c4)c(C)nc23)ccn1` as the compound, how does the Drug uptake read?
A: Active
